Laboratory results reported in US11279733B2, “Peptide antibiotics” (priority 2017, dated 2022).
Converted amounts (≈) assume the structure as drawn. Like-named read-outs stand apart in the source and are kept apart here. Positions of bridges follow the written chain, without caps; N, C: chain ends. Non-standard residues stand in square brackets, D forms with d. Residues, ends and D or L forms follow the SMILES beside them. *: point of attachment. X7 = CCC(C)CCCCC(O)CC(=O)*; dDab = NCC[C@@H](N)C(=O)O; X2 = CCC(C)CCC(O)CC(=O)*; Dab = NCC[C@H](N)C(=O)O

Assays:
[1] = tested on: A. baumannii ATCC 19606
Summary of the method: (§1)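 Mid-log cultures grown in Mueller Hinton broth at 37° C were tested by 2-fold broth microdilution at 5×10^5 CFU/mL final. Compounds were dissolved in water and tested over a final range of 32 to 0.015 μg/mL.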

[2] = tested on: A. baumannii GN_093 PmxR
Summary of the method: as §1

[3] = tested on: E. coli ATCC 25922
Summary of the method: as §1

[4] = tested on: K. pneumoniae ATCC 13883
Summary of the method: as §1

[5] = tested on: K. pneumoniae ATCC 700603, MDR
Summary of the method: as §1

[6] = tested on: K. pneumoniae ATCC BAA-2146, NDM-1 pos
Summary of the method: as §1

[7] = tested on: K. pneumoniae GN_102 PmxR
Summary of the method: as §1

[8] = tested on: K. pneumoniae GN_106, PmxR
Summary of the method: as §1

[9] = tested on: P. aeruginosa ATCC 27853
Summary of the method: as §1

[10] = tested on: P. aeruginosa GN_043, PmxR
Summary of the method: as §1

[11] = tested on: P. aeruginosa GN_105, PmxR
Summary of the method: as §1

[12] = tested on: S. aureus ATCC 25923, MSSA
Summary of the method: as §1

[13] = Cytotoxicity, resazurin assay, HEK293; conditions: human
Summary of the method: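 Viability is measured by resazurin reduction (5 μM, 2 h, 37 °C) after cells seeded at 4000 per well are treated with compound for 24 h.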

[14] = Cytotoxicity, HK2 LDH assay; conditions: human
Summary of the method: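 HK2 cells were seeded at 2000 per well in DMEM/F12 with 10% FBS and left to attach for 24 h at 37 °C, 5% CO2. They were then exposed for 24 h to 3-fold peptide dilutions starting from 600 μM solutions in quadruplicate. LDH release was read at 450 nm, and CC50 was fitted from dose-response curves.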

[15] = Cytotoxicity, resazurin assay, HepG2; conditions: human
Procedure: Cytotoxicity of the synthesised peptides was evaluated by comparison with commercially available colistin (polymyxin E), polymyxin B (Sigma chemical Co., St. Louis, Mo., U.S.A.) and synthetic octapeptin C4 by conducting lactate dehydrogenase (LDH) assay. CC50 values calculated based on curve fitting of dose dependent inhibition of cell growth represented the cytotoxicity of the peptide. Human kidney 2 (HK2) cells were seeded as 2000 cells per well in a 384 well cell culture plate in a final volume of 20 μL in DMEM/F12 medium (Invitrogen #11330057), in which 10% of FBS was added. Cells were incubated for 24 hours at 37° C., 5% CO2 to allow cells to attach to the plates. Similar conditions were employed for HEK293 and HepG2 cytotoxicity assays.
Cytotoxicity to HEK293 and HepG2 cells was determined using the resazurin assay (McMillian, M. K.; Li, L.; Parker, J. B.; Patel, L.; Zhong, Z.; Gunnett, J. W.; Powers, W. J.; Johnson, M. D. An improved resazurin-based cytotoxicity assay for hepatic cells; Cell Biol. Toxicol. 2002, 18, 157-173; O'Brien, J.; Wilson, I.; Orton, T.; Pognan, F. Investigation of the Alamar Blue (resazurin) fluorescent dye for the assessment of mammalian cell cytotoxicity. Eur. J. Biochem. 2000, 267, 5421-5426). In brief, HEK293 and HepG2 cells were seeded at 4000 cells/well in black-wall, clear-bottom 384-well plates (Corning, Australia) and incubated for 24 h at 37° C., 5% CO2. Compounds were then added into each well. After 24 h incubation, 5 μM resazurin was added per well and incubated at 37° C. for 2 h. Fluorescence intensity was then read using a Polarstar Omega with excitation/emission 560/590. The data was then analyzed using GraphPad Prism 6 software. CC50 values were determined using GraphPad Prism 6 software (Inc. La Jolla, Calif.).

CCC(C)CCCCC(O)CC(=O)N[C@@H](CCN)C(=O)N[C@H]1CCNC(=O)[C@H](CC(C)C)NC(=O)[C@H](CCN)NC(=O)[C@H](CCN)NC(=O)[C@H](CC(C)C)NC(=O)[C@@H](Cc2ccccc2)NC(=O)[C@H](CCN)NC1=O (stereo partly drawn) [compound 5567, nC7(8-Me)CH(OH)CH2CO-L-Dab-cyc[L-Dab-L-Dab-D-Phe-L-Leu-L-Dab-L-Dab-L-Leu]] (X7-[Dab][Dab][Dab][dF]L[Dab][Dab]L; lactam 2-C)
MIC, A. baumannii ATCC 19606 ([1]; Table 6): 8 µg/mL (≈ 7.56 µM)
MIC A. baumannii GN_093 PmxR ([2]; Table 6, polymyxin-resistant): 16 µg/mL (≈ 15.1 µM)
MIC, E. coli ATCC 25922 ([3]; Table 6): 8 µg/mL (≈ 7.56 µM)
MIC, K. pneumoniae ATCC 13883 ([4]; Table 6): 8 µg/mL (≈ 7.56 µM)
MIC, K. pneumoniae ATCC 700603, MDR ([5]; Table 6): 8 µg/mL (≈ 7.56 µM)
MIC, K. pneumoniae ATCC BAA-2146, NDM-1 pos ([6]; Table 6): 8 µg/mL (≈ 7.56 µM)
MIC K. pneumoniae GN_102 PmxR ([7]; Table 6, polymyxin-resistant): 8 µg/mL (≈ 7.56 µM)
MIC K. pneumoniae GN_106, PmxR ([8]; Table 6, polymyxin-resistant): 4 µg/mL (≈ 3.78 µM)
MIC, P. aeruginosa ATCC 27853 ([9]; Table 6): 2 µg/mL (≈ 1.89 µM)
MIC P. aeruginosa GN_043, PmxR ([10]; Table 6, polymyxin-resistant): 2 µg/mL (≈ 1.89 µM)
MIC P. aeruginosa GN_105, PmxR ([11]; Table 6, polymyxin-resistant): 2 µg/mL (≈ 1.89 µM)
MIC, S. aureus ATCC 25923, MSSA ([12]; Table 6): 32 µg/mL (≈ 30.2 µM)
CC50 at 24 h [13]: 292 µM
CC50 at 24 h [14]: 54 µM
CC50 at 24 h [15]: 150 µM

CCC(C)CCC(O)CC(=O)N[C@H](CCN)C(=O)N[C@H]1CCNC(=O)[C@H](CC(C)C)NC(=O)[C@H](CCN)NC(=O)[C@H](CCN)NC(=O)[C@H](Cc2ccccc2)NC(=O)[C@H](CC(C)C)NC(=O)[C@H](CCN)NC1=O (stereo partly drawn) [compound 6371, nC5(6-Me)CH(OH)CH2CO-D-Dab-cyc[L-Dab-L-Dab-L-Leu-L-Phe-L-Dab-L-Dab-L-Leu]] (X2-[dDab][Dab][Dab]LF[Dab][Dab]L; lactam 2-C)
MIC A. baumannii ATCC 19606 ([1]; ATCC 19606): >32 µg/mL
MIC A. baumannii GN_093 PmxR ([2]; GN 093 PmxR): >32 µg/mL
MIC E. coli ATCC 25922 ([3]; ATCC 25922): >32 µg/mL
MIC K. pneumoniae ATCC 13883 ([4]; ATCC 13883): >32 µg/mL
MIC K. pneumoniae ATCC 700603, MDR ([5]; ATCC 700603): >32 µg/mL
MIC K. pneumoniae ATCC BAA-2146, NDM-1 pos ([6]; ATCC BAA-2146): >32 µg/mL
MIC K. pneumoniae GN_102 PmxR ([7]; GN 102 PmxR): >32 µg/mL
MIC K. pneumoniae GN_106, PmxR ([8]; GN 106, PmxR): >32 µg/mL
MIC P. aeruginosa ATCC 27853 ([9]; ATCC 27853): 32 µg/mL (≈ 31.1 µM)
MIC P. aeruginosa GN_043, PmxR ([10]; P. aeruginosa GN_043, PmxR): >32 µg/mL
MIC P. aeruginosa GN_105, PmxR ([11]; GN 105, PmxR): >32 µg/mL
MIC S. aureus ATCC 25923, MSSA ([12]; ATCC 25923): >32 µg/mL
CC50 at 24 h [13]: > 300 µM
CC50 at 24 h [14]: > 300 µM
CC50 at 24 h [15]: > 300 µM
